Patent US12492181B2, “Gem-disubstituted piperidine melanocortin subtype-2 receptor (MC2R) antagonists and uses thereof” (Crinetics Pharmaceuticals, Inc., priority 2019, dated 2025)

Biological target: T1, hMC2 receptor (crude hMC2R membranes from CRE-bla-CHO-K1 cells stably expressing hMC2 receptor and hMRAP accessory protein) (Homo sapiens, UniProt Q01718)
T1 construct: crude membrane fractions
Assay: hMC2 membrane binding assay ([125I]ACTH (1-39) Tyr23, SPA)
Conditions: displacement of 0.2 nM [125I]ACTH (1-39) Tyr23 from hMC2R membranes, 1.5 hours at room temperature; read-out: MC2R binding potency
Procedure, shortened: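 Crude membranes from CRE-bla-CHO-K1 cells stably co-expressing hMC2R and hMRAP, premixed with WGA PVT SPA beads in pH 7.4 HEPES buffer (5 mM MgCl2, 1 mM CaCl2, 0.20% BSA, protease inhibitors). Compounds compete with [125I]ACTH(1-39) Tyr23, read by scintillation. Ki from non-linear regression.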

T1 sequence (Q01718 whole entry): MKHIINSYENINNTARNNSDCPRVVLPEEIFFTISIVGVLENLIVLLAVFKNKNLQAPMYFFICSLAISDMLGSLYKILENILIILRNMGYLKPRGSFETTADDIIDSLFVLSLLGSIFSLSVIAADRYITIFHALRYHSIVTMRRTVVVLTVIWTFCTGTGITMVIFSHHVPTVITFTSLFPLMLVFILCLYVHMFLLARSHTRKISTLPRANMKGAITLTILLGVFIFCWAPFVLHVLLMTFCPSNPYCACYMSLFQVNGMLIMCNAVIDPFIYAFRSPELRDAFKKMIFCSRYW
T1 sequence (Q8TCY5 whole entry partner): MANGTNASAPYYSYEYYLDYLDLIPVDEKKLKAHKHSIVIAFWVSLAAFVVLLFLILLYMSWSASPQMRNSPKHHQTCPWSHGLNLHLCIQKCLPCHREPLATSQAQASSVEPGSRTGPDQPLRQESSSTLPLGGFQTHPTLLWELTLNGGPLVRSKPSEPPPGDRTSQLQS

Ki [nM]	SMILES
< 10	CCc1sccc1-c1ccc(C2(C(=O)N[C@H]3CCN(C)C3)CCN(c3ccc(C(F)(F)F)cc3C#N)CC2)cn1 [Compound 1-147, 1-[2-cyano-4-(trifluoromethyl)phenyl]-4-[6-(2-ethylthiophen-3-yl)pyridin-3-yl]-N-[(3S)-1-methylpyrrolidin-3-yl]piperidine-4-carboxamide]
10 to 100	CN1CC[C@H](NC(=O)C2(c3ccc(-c4cccc(F)c4C#N)nc3)CCN(c3ccc(C(F)(F)F)cc3C#N)CC2)C1 [Compound 1-148, 4-[6-(2-cyano-3-fluorophenyl)pyridin-3-yl]-1-[2-cyano-4-(trifluoromethyl)phenyl]-N-[(3S)-1-methylpyrrolidin-3-yl]piperidine-4-carboxamide]
< 10	Cc1nocc1-c1ccc(C2(C(=O)N[C@H]3CCN(C)C3)CCN(c3ccc(C(F)(F)F)cc3C#N)CC2)cn1 [Compound 1-149, 1-[2-cyano-4-(trifluoromethyl)phenyl]-4-[6-(3-methyl-1,2-oxazol-4-yl)pyridin-3-yl]-N-[(3S)-1-methylpyrrolidin-3-yl]piperidine-4-carboxamide]
< 10	CN1CC[C@H](NC(=O)C2(c3ccc(-c4ccccc4C(F)F)nc3)CCN(c3ccc(C(F)(F)F)cc3C#N)CC2)C1 [Compound 1-151, 1-[2-cyano-4-(trifluoromethyl)phenyl]-4-{6-[2-(difluoromethyl)phenyl]pyridin-3-yl}-N-[(3S)-1-methylpyrrolidin-3-yl]piperidine-4-carboxamide]
10 to 100	CN1CC[C@@H](NC(=O)C2(c3ccc(-c4ccc(C#N)n4C)nc3)CCN(c3ccc(C(F)(F)F)cc3C#N)CC2)C1 [Compound 1-153, 4-[6-(5-cyano-1-methyl-1H-pyrrol-2-yl)pyridin-3-yl]-1-[2-cyano-4-(trifluoromethyl)phenyl]-N-[(3R)-1-methylpyrrolidin-3-yl]piperidine-4-carboxamide]
< 10	COc1ncc(F)cc1-c1ccc(C2(C(=O)N[C@H]3CCN(C)C3)CCN(c3ccc(C(F)(F)F)cc3Cl)CC2)cn1 [Compound 1-154, 1-[2-chloro-4-(trifluoromethyl)phenyl]-4-{5′-fluoro-2′-methoxy-[2,3′-bipyridin]-5-yl}-N-[(3S)-1-methylpyrrolidin-3-yl]piperidine-4-carboxamide]
< 10	CCc1ccccc1-c1ccc(C2(C(=O)N[C@H]3CCN(C)C3)CCN(c3ccc(C(F)(F)F)cc3Cl)CC2)cn1 [Compound 1-156, 1-[2-chloro-4-(trifluoromethyl)phenyl]-4-[6-(2-ethylphenyl)pyridin-3-yl]-N-[(3S)-1-methylpyrrolidin-3-yl]piperidine-4-carboxamide]
10 to 100	Cc1oncc1-c1ccc(C2(C(=O)N[C@@H]3CCN(C)C3)CCN(c3ccc(C(F)(F)F)cc3C#N)CC2)cn1 [Compound 1-157, 1-[2-cyano-4-(trifluoromethyl)phenyl]-4-[6-(5-methyl-1,2-oxazol-4-yl)pyridin-3-yl]-N-[(3R)-1-methylpyrrolidin-3-yl]piperidine-4-carboxamide]
< 10	CN1CC[C@H](NC(=O)C2(c3ccc(-c4cccn4C4CC4)nc3)CCN(c3ccc(C(F)(F)F)cc3C#N)CC2)C1 [Compound 1-158, 1-[2-cyano-4-(trifluoromethyl)phenyl]-4-[6-(1-cyclopropyl-1H-pyrrol-2-yl)pyridin-3-yl]-N-[(3S)-1-methylpyrrolidin-3-yl]piperidine-4-carboxamide]
< 10	CN1CC[C@H](NC(=O)C2(c3cnc(-c4cccn4C)c(F)c3)CCN(c3ccc(C(F)(F)F)cc3C#N)CC2)C1 [Compound 1-161, 1-[2-cyano-4-(trifluoromethyl)phenyl]-4-[5-fluoro-6-(1-methyl-1H-pyrrol-2-yl)pyridin-3-yl]-N-[(3S)-1-methylpyrrolidin-3-yl]piperidine-4-carboxamide]
< 10	COc1ccccc1-c1ccc(C2(C(=O)N[C@H]3CCN(C)C3)CCN(c3ccc(C(F)(F)F)cc3C#N)CC2)cn1 [Compound 1-166, 1-[2-cyano-4-(trifluoromethyl)phenyl]-4-[6-(2-methoxyphenyl)pyridin-3-yl]-N-[(3S)-1-methylpyrrolidin-3-yl]piperidine-4-carboxamide]
< 10	COc1sccc1-c1ccc(C2(C(=O)N[C@H]3CCN(C)C3)CCN(c3ccc(C(F)(F)F)cc3Cl)CC2)cn1 [Compound 1-167, 1-[2-chloro-4-(trifluoromethyl)phenyl]-4-[6-(2-methoxythiophen-3-yl)pyridin-3-yl]-N-[(3S)-1-methylpyrrolidin-3-yl]piperidine-4-carboxamide]
< 10	CN1CC[C@H](NC(=O)C2(c3ccc(-c4cccn4C)nn3)CCN(c3ccc(C(F)(F)F)cc3C#N)CC2)C1 [Compound 1-168, 1-[2-cyano-4-(trifluoromethyl)phenyl]-4-[6-(1-methyl-1H-pyrrol-2-yl)pyridazin-3-yl]-N-[(3S)-1-methylpyrrolidin-3-yl]piperidine-4-carboxamide]
< 10	CCc1ncccc1-c1ccc(C2(C(=O)N[C@H]3CCN(C)C3)CCN(c3ccc(C(F)(F)F)cc3Cl)CC2)cn1 [Compound 1-172, 1-[2-chloro-4-(trifluoromethyl)phenyl]-4-{2′-ethyl-[2,3′-bipyridin]-5-yl}-N-[(3S)-1-methylpyrrolidin-3-yl]piperidine-4-carboxamide]

Continued, compound first:

SMILES	Ki [nM]
CCOc1ncccc1-c1ccc(C2(C(=O)N[C@H]3CCN(C)C3)CCN(c3ncc(C(F)(F)F)cc3Cl)CC2)cn1 [Compound 1-150, 1-[3-chloro-5-(trifluoromethyl)pyridin-2-yl]-4-{2′-ethoxy-[2,3′-bipyridin]-5-yl}-N-[(3S)-1-methylpyrrolidin-3-yl]piperidine-4-carboxamide]	10 to 100
Cn1cccc1-c1ccc(C2(C(=O)N[C@H]3CCNC3)CCN(c3ccc(C(F)(F)F)cc3C#N)CC2)cn1 [Compound 1-152, 1-[2-cyano-4-(trifluoromethyl)phenyl]-4-[6-(1-methyl-1H-pyrrol-2-yl)pyridin-3-yl]-N-[(3S)-pyrrolidin-3-yl]piperidine-4-carboxamide]	< 10
COc1ccc(F)cc1-c1ccc(C2(C(=O)N[C@H]3CCN(C)C3)CCN(c3ccc(C(F)(F)F)cc3Cl)CC2)cn1 [Compound 1-155, 1-[2-chloro-4-(trifluoromethyl)phenyl]-4-[6-(5-fluoro-2-methoxyphenyl)pyridin-3-yl]-N-[(3S)-1-methylpyrrolidin-3-yl]piperidine-4-carboxamide]	< 10
CCOc1ncccc1-c1ccc(C2(C(=O)N[C@@H]3CCN(C)C3)CCN(c3ccc(C(F)(F)F)cc3OC)CC2)cc1 [Compound 1-159, 4-[4-(2-ethoxypyridin-3-yl)phenyl]-1-[2-methoxy-4-(trifluoromethyl)phenyl]-N-[(3R)-1-methylpyrrolidin-3-yl]piperidine-4-carboxamide]	10 to 100
CN1CC[C@H](NC(=O)C2(c3ccc(-c4cccn4C)nc3)CCN(c3ccc(C(F)(F)F)cc3Cl)CC2)C1 [Compound 1-160, 1-[2-chloro-4-(trifluoromethyl)phenyl]-4-[6-(1-methyl-1H-pyrrol-2-yl)pyridin-3-yl]-N-[(3S)-1-methylpyrrolidin-3-yl]piperidine-4-carboxamide]	< 10
CN1CC[C@H](NC(=O)C2(c3cnc(-c4cccn4C)c(F)c3)CCN(c3ccc(C(F)(F)F)cc3Cl)CC2)C1 [Compound 1-162, 1-[2-chloro-4-(trifluoromethyl)phenyl]-4-[5-fluoro-6-(1-methyl-1H-pyrrol-2-yl)pyridin-3-yl]-N-[(3S)-1-methylpyrrolidin-3-yl]piperidine-4-carboxamide]	< 10
CN1CC[C@H](NC(=O)C2(c3cnc(-c4cccn4C)c(F)c3)CCN(c3ccc(Cl)cc3C#N)CC2)C1 [Compound 1-163, 1-(4-chloro-2-cyanophenyl)-4-[5-fluoro-6-(1-methyl-1H-pyrrol-2-yl)pyridin-3-yl]-N-[(3S)-1-methylpyrrolidin-3-yl]piperidine-4-carboxamide]	< 10
CCOc1ncccc1-c1ccc(C2(C(=O)N[C@@H]3CCN(C)C3)CCN(c3ccc(C(F)(F)F)cc3C)CC2)cc1 [Compound 1-164, 4-[4-(2-ethoxypyridin-3-yl)phenyl]-1-[2-methyl-4-(trifluoromethyl)phenyl]-N-[(3R)-1-methylpyrrolidin-3-yl]piperidine-4-carboxamide]	10 to 100
CCOc1ncccc1-c1ccc(C2(C(=O)N[C@@H]3CCN(C)C3)CCN(c3ccc(C(F)(F)F)c(Cl)c3)CC2)cc1 [Compound 1-165, 1-[3-chloro-4-(trifluoromethyl)phenyl]-4-[4-(2-ethoxypyridin-3-yl)phenyl]-N-[(3R)-1-methylpyrrolidin-3-yl]piperidine-4-carboxamide]	10 to 100
CN1CC[C@H](NC(=O)C2(c3ccc(-c4cccn4C)nn3)CCN(c3ccc(C(F)(F)F)cc3Cl)CC2)C1 [Compound 1-169, 1-[2-chloro-4-(trifluoromethyl)phenyl]-4-[6-(1-methyl-1H-pyrrol-2-yl)pyridazin-3-yl]-N-[(3S)-1-methylpyrrolidin-3-yl]piperidine-4-carboxamide]	< 10
CN1CC[C@H](NC(=O)C2(c3ccc(-c4cccn4C)nn3)CCN(c3ccc(Cl)cc3C#N)CC2)C1 [Compound 1-170, 1-(4-chloro-2-cyanophenyl)-4-[6-(1-methyl-1H-pyrrol-2-yl)pyridazin-3-yl]-N-[(3S)-1-methylpyrrolidin-3-yl]piperidine-4-carboxamide]	< 10
CN1CC[C@H](NC(=O)C2(c3ccc(-c4cccn4C)nn3)CCN(c3ccc(C(F)(F)F)cc3F)CC2)C1 [Compound 1-171, 1-[2-fluoro-4-(trifluoromethyl)phenyl]-4-[6-(1-methyl-1H-pyrrol-2-yl)pyridazin-3-yl]-N-[(3S)-1-methylpyrrolidin-3-yl]piperidine-4-carboxamide]	< 10
